For one test, the target named is recombinant Nm23-H1 (Homo sapiens, UniProt P15531). The test is described as follows: NDPK assay with recombinant Nm23-H1. The class given is biochemical. To be noted: 5 ng recombinant Nm23-H1, incubated 10 minutes at room temperature, then 5 μM ADP for 1 minute. The protocol: NDPK assay was performed by incubating 5 ng of recombinant Nm23-H1 with each of test compounds (Examples 1 to 3) in NDPK assay buffer (20 mM HEPES, 3 mM MgCl2) at room temperature for 10 minutes, followed by reaction with 5 μM ADP for 1 minute.

For test [1], the system named is MDA-MB-321 cells. The test is described as follows: 3D tumor spheroid model, co-treatment with paclitaxel. Format: cell-based. The following applies: co-treated with paclitaxel, 14 days after treatment, FIG. 5. The protocol: In order to evaluate the effect of co-treatment with paclitaxel (PTX) which is used as a chemotherapeutic agent against triple negative breast cancer, the effect of co-treatment was evaluated using a 3D tumor spheroid model in a manner similar to Example 7.
Specifically, 7.5 K MDA-MB-321 cells were 3D-cultured in an ultra-low attachment (ULA) 96-well plate (Perkin Elmer) under a 2.5% Matrigel™ (BD Biosciences) condition. 5 days after 3D spheroid production, the cells were co-treated with the compound (B024) of Example 1 according to the present disclosure and paclitaxel in a concentration-dependent manner, and 14 days after the treatment, the cancer cell growth inhibitory effect of co-treatment was evaluated.

Test [2] deals with MDA-MB-321 cells. The test is described as follows: 3D tumor spheroid model. The following applies: various concentrations, 14 days after treatment, FIG. 4. The class given is cell-based. The protocol: The cancer growth inhibitory effect of administration of the compounds according to the present disclosure was evaluated using a 3D tumor spheroid model. The 3D tumor spheroid structure has characteristics similar to solid cancer under normal stress conditions because it is not easy to transfer nutrients into cancer cells.
Specifically, 7.5 K MDA-MB-321 cells were 3D-cultured in an ultra-low attachment (ULA) 96-well plate (Perkin Elmer) under a 2.5% Matrigel™ (BD Biosciences) condition. 5 days after 3D spheroid production, the cells were treated with various concentrations of the compound (#24) of Example 1 according to the present disclosure, and 14 days after the treatment, the cancer cell growth inhibitory effect of the compound was evaluated.

The structures appear in SMILES notation.

Chain of recombinant Nm23-H1 (P15531 whole entry): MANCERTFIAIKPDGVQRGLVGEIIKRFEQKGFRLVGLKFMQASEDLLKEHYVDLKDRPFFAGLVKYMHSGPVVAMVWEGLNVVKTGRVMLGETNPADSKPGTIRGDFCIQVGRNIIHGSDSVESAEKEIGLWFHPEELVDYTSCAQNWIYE

With `COc1ccc(-c2cccc(C(O)c3ccc(OC)c(OC)c3)c2)cc1OC` (centres unmarked) [Example 1, (3′,4′-dimethoxy-[1,1′-biphenyl]-3-yl)(3,4-dimethoxyphenyl)methanol], on recombinant Nm23-H1, the NDPK activity came to 2.8. In addition, in the test on MDA-MB-321 cells [1], the “cancer cell growth in 3D tumor spheroid model, co-administration with paclitaxel” value is on record as “significantly inhibited cancer cell growth even at low concentrations”. For the same compound, in the test with MDA-MB-321 cells [2], the “cancer cell growth in the 3D tumor spheroid model” value was “significantly inhibited cancer cell growth”.
`COc1ccc(Cc2cccc(-c3ccc(OC)c(OC)c3)c2)cc1OC` [Example 2, 3′-(3,4-dimethoxybenzyl)-3,4-dimethoxy-1,1′-biphenyl]: the NDPK activity on recombinant Nm23-H1 is given as 1.4.
As for `COc1ccc(C(=O)c2cccc(-c3ccc(OC)c(OC)c3)c2)cc1OC` [Example 3, (3′,4′-dimethoxy-[1,1′-biphenyl]-3-yl)(3,4-dimethoxyphenyl)methanone], the NDPK activity on recombinant Nm23-H1 was 1.7.

(Values after patent US12043594B2, “Biphenyl derivative compound and use thereof” (EWHA UNIVERSITY—INDUSTRY COLLABORATION FOUNDATION, priority 2018, dated 2024).)
